Assays:
MAP kinase = MAP kinase activation in PC12 cells (anti-phospho MAP kinase immunoblot); format: cell-based; details: PC12 cells, adenosine 10 μM, within 10 minutes
Experimental: PC12 cells (615) were treated with adenosine (10 μM) for various times in the presence or absence of […] (100 nM) or LY294002 (10 μM). The cells were subsequently harvested in lysis buffer; lysates and immunoprecipitated samples were subsequently immunoblotted with anti-phospho MAP kinase, anti-phospho Akt, and anti-phosphotyrosine. Reprobing with anti-MAP kinase and anti-pan-Trk antibodies was carried out to ensure equal protein loading. Immunoprotection and Immunoblotting. PC12 cells or PC12-615 cells (Hempstead et al, 1992), were maintained in Dulbecco's Modified Eagle's Medium (DMEM) containing 10% fetal bovine serum (FBS) supplemented with 100 units/ml penicillin, 100 μg/ml streptomycin, and 2 mM glutamine plus 200 μg/ml G418. Cells were placed in low serum medium (1% FBS, 0.5% horse serum) overnight prior to experiments. Cell lysates from PC12, 615 cells, or hippocampal cells were incubated in lysis buffer (1% NP40) for 4 hours to overnight at 4° C. with anti-pan-Trk polyclonal antibody, followed by incubation with protein A-Sepharose beads. Equivalent amounts of protein were analyzed for each condition. […] The immunoreactive protein bands were detected by ECL reagents based upon enhanced chemiluminescence procedure (Amersham Pharmacia).

Akt = Akt activation in PC12 cells (anti-phospho Akt immunoblot); format: cell-based; details: PC12 cells; adenosine 10 μM; CGS 21680 data not shown
Experimental: PC12 cells (615) were treated with adenosine (10 μM) for various times in the presence or absence of […] (100 nM) or LY294002 (10 μM). The cells were subsequently harvested in lysis buffer; lysates and immunoprecipitated samples were subsequently immunoblotted with anti-phospho MAP kinase, anti-phospho Akt, and anti-phosphotyrosine. Reprobing with anti-MAP kinase and anti-pan-Trk antibodies was carried out to ensure equal protein loading. To assess the activity of Akt, endogenous Akt can be immunoprecipitated from lysates with anti-Akt and the proteins assayed in Western blots with anti-phospho-Akt antibodies. Use of the anti-Akt antibody versus the anti-phospho-Akt antibody on lysates can give a comparative assessment of the relative level of the enzyme and extent of activation (Kim et al., 2001). […] and Immunoblotting. PC12 cells or PC12-615 cells (Hempstead et al, 1992), were maintained in Dulbecco's Modified Eagle's Medium (DMEM) containing 10% fetal bovine serum (FBS) supplemented with 100 units/ml penicillin, 100 μg/ml streptomycin, and 2 mM glutamine plus 200 μg/ml G418. Cells were placed in low serum medium (1% FBS, 0.5% horse serum) overnight prior to experiments. Cell lysates from PC12, 615 cells, or hippocampal cells were incubated in lysis buffer (1% NP40) for 4 hours to overnight at 4° C. with anti-pan-Trk polyclonal antibody, followed by incubation with protein A-Sepharose beads. Equivalent amounts of protein were analyzed for each condition. The beads' were washed five times with lysis buffer and the immune complexes were boiled in SDS-sample buffer and loaded on sodium dodecyl sulfate-polyacrylamide electrophoresis (SDS-PAGE) gels for immunoblot analysis. The immunoreactive protein bands were detected by ECL reagents based upon enhanced chemiluminescence procedure (Amersham Pharmacia).

TrkA = TrkA (Homo sapiens, UniProt P04629); assay: 125I-NGF equilibrium binding, HEK 293 cells expressing TrkA; parameters: expressed in transfected cells; host or cells: HEK 293 cells; details: for Specific Binding of 125I-NGF: 293/TrkA, 1 μM, 30 minutes at 25° C., control 39076 +/− 2885; for Displacement of 125I-NGF binding: 293 cells that expressed TrkA, excess concentrations
TrkA, sequence (P04629 33-796, species assumed): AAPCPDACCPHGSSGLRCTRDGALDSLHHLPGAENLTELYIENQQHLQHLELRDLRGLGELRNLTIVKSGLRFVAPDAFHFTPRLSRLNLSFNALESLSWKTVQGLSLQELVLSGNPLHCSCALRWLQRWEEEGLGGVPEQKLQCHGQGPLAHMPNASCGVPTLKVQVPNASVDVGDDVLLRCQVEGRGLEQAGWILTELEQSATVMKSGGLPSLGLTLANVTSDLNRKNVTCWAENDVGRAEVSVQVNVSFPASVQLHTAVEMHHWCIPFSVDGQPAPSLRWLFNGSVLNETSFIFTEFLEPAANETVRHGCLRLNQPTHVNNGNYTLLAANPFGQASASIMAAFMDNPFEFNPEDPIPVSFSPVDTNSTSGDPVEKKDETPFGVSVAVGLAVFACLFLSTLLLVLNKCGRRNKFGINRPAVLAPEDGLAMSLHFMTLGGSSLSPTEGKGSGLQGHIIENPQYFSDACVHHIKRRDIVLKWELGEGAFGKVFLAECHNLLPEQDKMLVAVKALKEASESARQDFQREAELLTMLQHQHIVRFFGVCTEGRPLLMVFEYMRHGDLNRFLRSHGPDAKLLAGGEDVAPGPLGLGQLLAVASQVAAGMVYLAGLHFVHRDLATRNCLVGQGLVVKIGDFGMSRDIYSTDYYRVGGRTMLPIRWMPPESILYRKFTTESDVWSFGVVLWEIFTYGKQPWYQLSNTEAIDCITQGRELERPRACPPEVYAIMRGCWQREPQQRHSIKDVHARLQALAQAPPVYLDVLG
Experimental: ^125I-NGF Binding Analysis. For equilibrium binding studies, ^125I-NGF was prepared as described previously (Hempstead et al, 1989). PC12 cells stably overexpressing TrkA (2×10^5 cells) and HEK 293 cells expressing TrkA (2×10^5) were incubated with ^125I-NGF in the absence and presence of adenosine compounds for 30 minutes at 25° C. The cells were then washed twice with PBS, and ^125I-NGF stripped with an acid solution (0.2 M acetic acid, 0.5 M NaCl). Nonspecific binding was assessed by adding unlabeled NGF at a final concentration of 1000 ng/ml and represented less than 20% of total binding. Specific binding was defined as total binding minus nonspecific binding. All conditions were carried out in triplicate and SEM calculated.

[1] = tested on: NGF-differentiated PC12 cells; assay: Cell death assay (LDH release), NGF-differentiated PC12 cells after NGF and serum withdrawal; format: cell-based; details: one-time treatment, 48 hours in the absence of NGF, LDH release
Experimental: FIGS. 6A and 6B show graphs on the trophic effects of adenosine in PC12 and hippocampal cells deprived of neurotrophins. In FIG. 6A, NGF-differentiated PC12 cells were prepared and then NGF and serum were withdrawn for 48 hours as described in the Materials and Methods section of Example 1. Upon NGF withdrawal, various concentrations of CGS 21680 (CGS) were added to the media. CON =No Addition. […] In FIG. 6B, hippocampal neurons were prepared and B27 was withdrawn for 48 hrs as described in the Materials and Methods section of Example 1. Upon B27 withdrawal, various concentrations of CGS 21680 (CGS) were added to the media. […] All LDH levels were quantitated and % cell death calculated as described in the Materials and Methods section of Example 1. All bars depict mean+SEM from three independent experiments.
Cell Death Assay. PC12 cells were differentiated in Dulbecco's modified Eagle's medium (DMEM), supplemented with 0.33% fetal bovine serum, 0.67% heat-inactivated horse serum, 2 mM L-glutamine and NGF (50 ng/ml) for 7 days. Serum and NGF were then removed, and adenosine agonists or growth factors added to the media. After 48 hrs, cell death was quantified by measuring lactate dehydrogenase (LDH) released from injured cells into the media using the Cytox 96 Cytotoxicity Assay Kit (Promega, Madison, Wis.). LDH values were normalized by subtracting the LDH released by cells maintained in NGF (50 ng/ml) and scaling to a full kill (=100%) reference induced by 5 min treatment with 1% Triton, an exposure that consistently killed all PC12 cells.

SMILES | Phosphorylated MAP kinase (MAP kinase) | Activation of Akt (phospho-specific antibody) (Akt) | Specific Binding of 125I-NGF (TrkA) | Displacement of 125I-NGF binding (TrkA) | Cells rescued [1] [%]
Nc1ncnc2c1ncn2[C@@H]1O[C@H](CO)[C@@H](O)[C@H]1O [adenosine] | marked increased in phosphorylated MAP kinase | able to activate Akt | 36618 +/− 4185 | did not displace | –
CCNC(=O)[C@H]1O[C@@H](n2cnc3c(N)nc(NCCc4ccc(CCC(=O)O)cc4)nc32)[C@H](O)[C@@H]1O [CGS 21680, 2-[(4-(2-carboxyethyl)phenylethyl)]aminoadenosine-5′-N-ethylcarboxamide] | – | able to activate Akt | 39568 +/− 2032 | did not displace | ~50
